In data set [1] the target is T1, O-acetylserine sulfhydrylase (Mycobacterium tuberculosis, UniProt P9WP55). In words: Inhibition of Mycobacterium tuberculosis CysK1.
Data set [2] addresses T1, O-acetylserine sulfhydrylase.
Description: Inhibition of Mycobacterium tuberculosis N-terminal His-6-tagged recombinant CysK1 expressed in Escherichia coli BL21 (DE3) after 20 mins by spectrophotometric analysis
Data set [3] has as its target O-acetylserine sulfhydrylase (Mycobacterium tuberculosis) (UniProt P9WP55). The note with it: at 500 nM.
Description: Inhibition of Mycobacterium tuberculosis N-terminal His-6-tagged recombinant CysK1 expressed in Escherichia coli BL21 (DE3) at 500 nM after 20 mins by spectrophotometric analysis
For data set [4] the target is unchanged.
Data set [5] in a line: Lipophilicity, log P of the compound. As to conditions: octanol/water. The format is physicochemical.
The target of data set [6] is O-acetylserine sulfhydrylase (Mycobacterium tuberculosis) (UniProt P9WP55). The source holds these as a separate data set.

This is an account of results in ChEMBL document CHEMBL2417551, “Structure-guided design of novel thiazolidine inhibitors of O-acetyl serine sulfhydrylase from Mycobacterium tuberculosis” (J Med Chem, 2013).

One may read the IC50 as the concentration at which inhibition is half-maximal. Low readings indicate greater potency in that assay, high ones weaker potency in that assay. For orientation: inhibition means the drop in the measured response relative to a control, in per cent. A higher inhibition goes with a strong effect. Broadly, the logP is a log measure of how a compound divides between an organic and an aqueous phase. Low values mean lower lipophilicity, high ones higher lipophilicity.

Regarding `CN1C(=O)/C(=C/c2ccccc2OCC(=O)O)S/C1=N\c1cccc(C(=O)O)c1`, in data set [1], 103 nM corresponded to half-maximal inhibition (IC50).
`CN1C(=O)/C(=C/c2ccc(N(C)C)cc2)S/C1=N\c1cccc(C(=O)O)c1`: in data set [2], the IC50 came to 37 nM. In data set [3], the inhibition is 93.4%.
Taken in the same sequence, the figures for `CCCN1C(=O)/C(=C/c2ccc(O)cc2)S/C1=N\c1cccc(C(=O)O)c1` were 95.1 nM and 95.1%.
For `CCN1C(=O)/C(=C/c2ccc(OC)c(OC)c2)S/C1=N\c1cccc(C(=O)O)c1`, in that order: 56 nM and 90.9%.
`C=CCN1C(=O)/C(=C/c2ccc(O)cc2)S/C1=N\c1cccc(C(=O)O)c1` yielded an IC50 in data set [2] of 110 nM. In data set [3], this compound came in with an inhibition of 92.3%.
In data set [2], `COc1ccc(/C=C2\S/C(=N\c3cccc(C(=O)O)c3)N(C)C2=O)cc1` returned an IC50 of 33.9 nM. Besides, the inhibition in data set [3] came out at 88.6%.
For `COc1ccccc1/C=C1\S/C(=N\c2cccc(C(=O)O)c2)N(C)C1=O`, in that order: 160 nM and 96.9%.
For `COc1ccc(/C=C2\S/C(=N\c3cccc(C(=O)O)c3)N(C)C2=O)cc1OC`, in that order: 54.3 nM and 89.7%.
Compound `COc1cc(/C=C2\S/C(=N\c3cccc(C(=O)O)c3)N(C)C2=O)cc(OC)c1OC` had an IC50 in data set [2] of 69.9 nM. In data set [3], this compound had an inhibition of 89.4%.
Compound `CC[C@H](C)[C@H](NC(=O)[C@H](CO)NC(=O)[C@H](Cc1ccccc1)NC(=O)[C@@H](N)CC(=O)O)C(=O)O` returned an IC50 in data set [1] of 2900 nM.
In data set [2], `CCN1C(=O)/C(=C/c2ccc(O)cc2)S/C1=N\c1cccc(C(=O)O)c1` showed an IC50 of 101 nM. For the same compound, the inhibition in data set [3] worked out at 90.2%.
Taken in the same sequence, the figures for `CN1C(=O)/C(=C/c2ccc(O)cc2)S/C1=N\c1cccc(C(=O)O)c1` were 62.6 nM and 92.6%.
Consider `CN1C(=O)/C(=C/c2ccc(F)cc2)S/C1=N\c1cccc(C(=O)O)c1`, for which the Ratio IC50 is 150 in data set [4] and 5 in data set [6]. This compound gave an IC50 in data set [2] of 19 nM. In data set [5], this compound gave a logP of 2.7. The compound also gave an inhibition in data set [3] of 89.5%.
Compound `CC(C)N1C(=O)/C(=C/c2ccc(O)cc2)S/C1=N\c1cccc(C(=O)O)c1` registered an IC50 in data set [2] of 141 nM. Further, in data set [3], the inhibition worked out at 90.3%.
Taken in the same sequence, the figures for `CN1C(=O)/C(=C/c2ccc(OCc3ccccc3)cc2)S/C1=N\c1cccc(C(=O)O)c1` were 25.6 nM and 91.5%.
Taken in the same sequence, the figures for `COc1cc(/C=C2\S/C(=N\c3cccc(C(=O)O)c3)N(C)C2=O)ccc1O` were 60 nM and 87.5%.
